Columns and labels:
[1] = molecular target: T1, Cytochrome P450 11B1, mitochondrial (Homo sapiens, UniProt P15538); assay: Inhibition of recombinant CYP11B1 expressed in expressed in V79MZh11B1 cells; type: cell-based
T1 sequence (P15538 whole entry): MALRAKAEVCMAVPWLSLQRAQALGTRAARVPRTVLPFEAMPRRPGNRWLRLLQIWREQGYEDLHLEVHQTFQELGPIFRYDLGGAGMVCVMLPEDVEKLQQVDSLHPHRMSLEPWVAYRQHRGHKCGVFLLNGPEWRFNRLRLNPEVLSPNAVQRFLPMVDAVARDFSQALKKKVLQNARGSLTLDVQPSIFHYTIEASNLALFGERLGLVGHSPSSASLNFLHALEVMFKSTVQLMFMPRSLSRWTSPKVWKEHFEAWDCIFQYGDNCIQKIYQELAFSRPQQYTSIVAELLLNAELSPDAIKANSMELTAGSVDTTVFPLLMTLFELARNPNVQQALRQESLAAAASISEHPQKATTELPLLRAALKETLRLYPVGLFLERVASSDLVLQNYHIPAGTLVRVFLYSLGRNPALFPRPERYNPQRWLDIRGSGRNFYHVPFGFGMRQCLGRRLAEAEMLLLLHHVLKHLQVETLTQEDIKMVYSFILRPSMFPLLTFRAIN

[2] = molecular target: T2, Steroid 17-alpha-hydroxylase/17,20 lyase (Homo sapiens, UniProt P05093); assay: Inhibition of human CYP17 expressed in Escherichia coli coexpressing NADPH-P450 reductase at 0.2 uM
T2 sequence (P05093 whole entry): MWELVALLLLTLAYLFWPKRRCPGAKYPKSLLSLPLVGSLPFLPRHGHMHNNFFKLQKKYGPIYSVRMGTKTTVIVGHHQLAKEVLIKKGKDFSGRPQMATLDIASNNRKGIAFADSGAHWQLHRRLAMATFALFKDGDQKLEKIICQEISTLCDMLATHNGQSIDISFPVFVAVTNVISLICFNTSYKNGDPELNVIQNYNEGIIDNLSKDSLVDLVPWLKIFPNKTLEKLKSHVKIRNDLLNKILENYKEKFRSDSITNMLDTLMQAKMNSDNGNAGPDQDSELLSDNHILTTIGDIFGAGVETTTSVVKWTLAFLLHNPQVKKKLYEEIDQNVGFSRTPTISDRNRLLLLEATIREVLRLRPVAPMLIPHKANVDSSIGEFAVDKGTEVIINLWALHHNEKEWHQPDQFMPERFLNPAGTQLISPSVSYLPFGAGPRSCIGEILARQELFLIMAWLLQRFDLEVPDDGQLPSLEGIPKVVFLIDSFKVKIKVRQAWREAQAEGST

CYP3A4 [3] = molecular target: T3, CYP3A4 (Homo sapiens, UniProt P08684); assay: Inhibition of recombinant CYP3A4 expressed in baculovirus-infected insect microsome at 10 uM; type: ADME
CYP11B1 [4] = molecular target: T4, CYP11B1 (Homo sapiens, UniProt P15538); assay: Inhibition of recombinant CYP11B1 expressed in V79MZh11B1 cells at 0.2 uM; type: cell-based; settings: hamster, V79MZh11B1 cells expressing recombinant CYP11B1
T4 sequence (P15538 whole entry): T1 sequence (P15538 whole entry)

CYP3A4 [5] = molecular target: T3, CYP3A4; assay: (§1) Inhibition of recombinant CYP3A4 expressed in baculovirus-infected insect microsome at 1 uM; type: ADME; settings: human
CYP11B1 [6] = molecular target: T4, CYP11B1; assay: Inhibition of recombinant CYP11B1 expressed in expressed in V79MZh11B1 cells at 2 uM; type: cell-based; settings: hamster, V79MZh11B1 cells expressing recombinant CYP11B1
[7] = molecular target: T2, Steroid 17-alpha-hydroxylase/17,20 lyase; assay: Inhibition of human CYP17 expressed in Escherichia coli coexpressing NADPH-P450 reductase
[8] = molecular target: T2, Steroid 17-alpha-hydroxylase/17,20 lyase; assay: Inhibition of human CYP17 expressed in Escherichia coli coexpressing NADPH-P450 reductase at 2 uM
[9] = molecular target: T2, Steroid 17-alpha-hydroxylase/17,20 lyase; assay: Ratio of ketoconazole to drug against IC50 for human CYP17 expressed in Escherichia coli coexpressing NADPH-P450 reductase
Cytochrome P450 3A4 = Cytochrome P450 3A4 (Homo sapiens, UniProt P08684); assay: as §1; type: ADME
Cytochrome P450 3A4, sequence (P08684 whole entry): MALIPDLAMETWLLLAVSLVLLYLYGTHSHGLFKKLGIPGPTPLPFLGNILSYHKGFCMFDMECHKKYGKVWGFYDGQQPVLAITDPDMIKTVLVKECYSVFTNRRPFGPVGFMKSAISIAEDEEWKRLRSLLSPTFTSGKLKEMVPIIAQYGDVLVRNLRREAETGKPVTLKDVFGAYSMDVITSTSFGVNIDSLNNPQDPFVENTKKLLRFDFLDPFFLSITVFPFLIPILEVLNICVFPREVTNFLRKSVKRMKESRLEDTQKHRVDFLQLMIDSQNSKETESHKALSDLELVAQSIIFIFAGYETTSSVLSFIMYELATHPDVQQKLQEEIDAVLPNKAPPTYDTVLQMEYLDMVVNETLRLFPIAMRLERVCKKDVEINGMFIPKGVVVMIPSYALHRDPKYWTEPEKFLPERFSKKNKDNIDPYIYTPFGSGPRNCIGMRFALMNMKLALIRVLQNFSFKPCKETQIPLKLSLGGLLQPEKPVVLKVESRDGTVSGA

T3 sequence (P08684 whole entry): as above

Compound	IC50 [1]	inhibition at 0.2 µM [2]	inhibition at 10 µM (CYP3A4 [3])	inhibition at 0.2 µM (CYP11B1 [4])	inhibition at 1 µM (CYP3A4 [5])	inhibition at 2 µM (CYP11B1 [6])	IC50 [7]	inhibition at 2 µM [8]	IC50 (Cytochrome P450 3A4)	Ratio IC50 [9]
CCC(c1ccc(-c2cc(O)cc(O)c2)cc1)n1ccnc1 (racemic)	–	48%	99%	93%	90%	97%	195 nM	90%	–	–
CCC(c1ccc(-c2ccc(O)c(O)c2)cc1F)n1ccnc1 (racemic)	–	69%	100%	51%	93%	90%	52 nM	95%	–	–
CCC(c1ccc(-c2cc(C)c(O)c(C)c2)cc1)n1ccnc1 (racemic)	–	28%	100%	45%	94%	85%	379 nM	78%	–	50
COc1ccc(-c2ccc(C(C)n3ccnc3)cc2)cc1 (racemic)	–	9%	–	–	–	–	–	40%	–	–
CC(=O)N1CCN(c2ccc(OCC3COC(Cn4ccnc4)(c4ccc(Cl)cc4Cl)O3)cc2)CC1 (stereo not given) [KETOCONAZOLE]	–	–	–	61%	–	93%	–	–	–	–
CCC(c1ccc(-c2ccc(OC)cc2)cc1)n1ccnc1 (racemic)	–	2%	80%	–	73%	–	–	36%	–	–
CCC(c1ccc(-c2cccc(OC)c2)cc1)n1ccnc1 (racemic)	–	31%	92%	84%	80%	96%	188 nM	83%	–	–
COc1cccc(-c2ccc(C(C)n3ccnc3)cc2)c1 (racemic)	–	8%	–	–	–	–	–	59%	–	–
CCC(c1ccc(-c2ccc(O)c(Cl)c2)cc1)n1ccnc1 (racemic)	–	44%	99%	89%	–	96%	217 nM	89%	91 nM	50

Continued, in another order:

IC50 [1]	inhibition at 0.2 µM [2]	inhibition at 10 µM (CYP3A4 [3])	inhibition at 0.2 µM (CYP11B1 [4])	inhibition at 1 µM (CYP3A4 [5])	inhibition at 2 µM (CYP11B1 [6])	IC50 [7]	inhibition at 2 µM [8]	IC50 (Cytochrome P450 3A4)	Compound	Ratio IC50 [9]
1610 nM	–	–	–	–	–	–	–	–	C[C@]12CC[C@H](O)CC1=CC[C@@H]1[C@@H]2CC[C@]2(C)C(c3cccnc3)=CC[C@@H]12 [ABIRATERONE]	–
–	27%	91%	89%	87%	95%	231 nM	80%	–	CCC(c1ccc(-c2ccc(O)cc2)cc1)n1ccnc1 (racemic)	–
–	64%	91%	89%	86%	97%	90 nM	94%	–	CCC(c1ccc(-c2ccc(O)cc2)cc1F)n1ccnc1 (racemic)	–
–	9%	93%	–	70%	–	–	58%	–	CCC(c1ccc(-c2ccc(OC)c(OC)c2)cc1)n1ccnc1 (racemic)	–
–	56%	99%	38%	91%	92%	152 nM	91%	–	CCC(c1ccc(-c2ccc(O)c(O)c2)cc1)n1ccnc1 (racemic)	–
–	3%	–	–	–	–	–	25%	–	CCOc1ccc(-c2ccc(C(CC)n3ccnc3)cc2)cc1 (racemic)	–
–	45%	98%	91%	93%	96%	261 nM	89%	–	CCC(c1ccc(-c2ccc(O)c(C)c2)cc1)n1ccnc1 (racemic)	50
–	55%	88%	90%	84%	95%	164 nM	89%	–	CCC(c1ccc(-c2cccc(O)c2)cc1)n1ccnc1 (racemic)	–

Reference: ChEMBL document CHEMBL1152894, “Novel CYP17 inhibitors: synthesis, biological evaluation, structure-activity relationships and modelling of methoxy- and hydroxy-substituted methyleneimidazolyl biphenyls” (Eur J Med Chem, 2009)
